Assay results as given in US20140213559A1, “COMPOSITIONS AND TREATMENTS FOR DYSTROPHIES” (MD PHARMA AB, priority 2011, published 2014).

Key:
Assay type in all cases: in vivo, mouse
dy3K/dy3K mice [1] = experiment: Histology, immunofluorescence and morphometric analysis of muscle after systemic 3-MA injection
Procedure: Systemic administration was performed by intraperitoneal injection of 3-MA (15 mg/kg) into dy3K/dy3K mice and control littermates at the age of 2.5 weeks and 3.5 weeks. […] Prior to the euthanasia, an exploratory locomotion test was performed.
Quadriceps and tibialis anterior muscles from wild-type, dy3K/dy3K and injected mice (n=6 for each group) were rapidly dissected after euthanasia and frozen in OCT (Tissue Tek) in liquid nitrogen. Serial sections of […] were either stained with hematoxylin and eosin or processed for immunofluorescence experiments following standard procedures (20) with rabbit polyclonal antibodies directed against LC3B (1/100, #3868, Cell Signaling Technology), laminin γ1 chain (1/1000, #1083), laminin α4 chain (1/400, #1100) and […] (1/400, #1117) generously provided by Dr. T. Sasaki, rat monoclonal antibodies against laminin γ1 chain (1/200, MAB 1914, Chemicon) and tenascin-C (undiluted, MTn15), goat polyclonal antibody against collagen III (1/100, #1330, SouthernBiotech) and mouse monoclonal antibodies against caspase-3 (1/100, CPP32, BD Transduction Laboratory), embryonic myosin heavy chain (F1.652, Developmental Studies Hybridoma Bank) and MyoD (1/100, clone 5.8A Dako). For apoptotic myofiber detection, a TUNEL detection kit was used following instructions of the manufacturer (GenScript). Sections were analyzed using a Zeiss Axioplan fluorescence microscope. Images were captured using an ORCA 1394 ER digital camera with the Openlab 3 software.
Measurements were performed on whole quadriceps or tibialis anterior muscle sections from untreated wild-type and dy3K/dy3K, wild-type and dy3K/dy3K 3-MA injected animals (n=6 for each group). Tenascin-C and collagen III positive areas, eMHC positive fibers, caspase-3 positive fibers, TUNEL-positive myonuclei and fiber diameters were measured using the imageJ software. Minimal Feret's diameter was measured (41) for at least 1500 fibers for each mouse. The same number of fibers was used for quantification of fibers with centrally located nuclei. Wet quadriceps muscle weights were determined from 7 uninjected wild-type or dy3K/dy3K and 3-MA treated wild-type (n=4) and dy3K/dy3K (n=6) animals and correlated to body weight.

dy3K/dy3K mice [2] = experiment: Body weight measurement; conditions: 3-MA treated vs non-injected dy3K/dy3K mice, 4-week-old
Procedure: (§1) Systemic administration was performed by intraperitoneal injection of 3-MA (15 mg/kg) into dy3K/dy3K mice and control littermates at the age of 2.5 weeks and 3.5 weeks. Mice were sacrificed 14 days after injection and quadriceps and tibialis anterior muscles were processed for morphometric analysis, immunofluorescence experiments, qRT-PCR or Western blot analysis. Prior to the euthanasia, an exploratory locomotion test was performed.

Akt = Akt phosphorylation in quadriceps muscle, Western blot; conditions: dy3K/dy3K quadriceps
Procedure: as §1
Isolated quadriceps muscles were obtained from 6 wild-type, 6 dy3K/dy3K mice (3.5 weeks of age) and 6 dy3K/dy3K mice 48 h or 14 days after 3-MA injection. Each sample was immediately frozen in liquid nitrogen and reduced to powder using a mortar. Protein extracts were obtained as previously described (16). A total of […] of denaturated protein was loaded on 10-20% acrylamide SDS-gels (Clearpage, CBS Scientific) and blotted onto nitrocellulose membranes (Hybond-C, Amersham) during 1.5 hour (Biorad). The membranes were blocked for one hour at RT in PBS, 0.01% Tween-20, 5% milk and incubated overnight at 4° C. with rabbit polyclonal antibodies directed against pAkt (Ser 473, 1/2000, #4060 or Thr 308, 1/1000, #2965, Cell Signaling Technology), Akt (1/1000, #4685, Cell Signaling Technology), Vps34 (1/200, V9764, Sigma) or LC3B (1/250, #2775, Cell Signaling Technology). […]

[3] = test system: autophagy-related genes (LC3B, Cathepsin L, Lamp2a, Gabarapl1, Atg4b, Vps34, Beclin); experiment: Expression of autophagy-related genes in quadriceps muscle after systemic 3-MA injection (qRT-PCR, Western blot, immunofluorescence); conditions: dy3K/dy3K mice, 3-MA 15 mg/kg intraperitoneal at 2.5 and 3.5 weeks, 14 days post-injection
Procedure: as §1
Total RNA was extracted from 10 mg quadriceps muscle of 6 dy3K/dy3K mice (3.5-week-old) and 6 WT littermates and 5 WT and 5 dy3K/dy3K mice treated with 3-MA using RNeasy mini kit (Qiagen) including an initial step of proteinase K digestion (Fermentas, 240 ng/μl). […] Quantitative PCRs were performed in triplicate with the Maxima SYBR Green qPCR Master Mix (Fermentas). Expression of target and reference genes was monitored using a real-time qRT-PCR method (Light Cycler, Roche) with the previously described primers for the autophagic genes LC3B, Cathepsin L, Lamp2a, Gabarapl1, Atg4b, Vps34 and Beclin (8). The amplification efficiency for each primer pair was evaluated by amplification of serially diluted template cDNAs ([…]). Efficiency corrected RNA levels (in arbitrary units) were calculated by using the formula E^−Ct. Expression levels were then calculated relative to the endogenous control gene GAPDH and relative to wild-type quadriceps. […]

dy3K/dy3K mice [4] = experiment: Peripheral neuropathy / hind leg paralysis observation; conditions: 3-MA treated dy3K/dy3K mice
Procedure: as §1

wild-type mice = experiment: Hind leg paralysis observation in injected wild-type mice; conditions: 3-MA injected wild-type mice
Procedure: as §1

dy3K/dy3K mice [5] = experiment: Survival curves; conditions: two systemic injections of 3-MA, 22 days for non-treated
Procedure: as §1
Death was monitored in 3-MA injected dy3K/dy3K mice (n=9). A survival curve was constructed using the GraphPad Prism 4 software.

dy3K/dy3K mice [6] = experiment: Exploratory locomotion, open field test; conditions: 3-MA injected dy3K/dy3K mice, 14 days after injection, 5 min
Procedure: as §1
Exploratory locomotion was examined in an open field test. In each experiment, the mouse 14 days after 3-MA injection (n=11 for dy3K/dy3K and wild-type, respectively) was placed into a new cage and allowed to explore the cage for 5 min. The time that the mouse spent moving around was measured manually.

[7] = 3-MA injected dy3K/dy3K mice, quadriceps
[8] = 3-MA injected vs non-injected dy3K/dy3K mice, quadriceps, 14 days post-injection
[9] = 3-MA treated dy3K/dy3K mice, quadriceps, 14 days

Cn1cnc(N)c2ncnc1-2 [3-MA, 3-methyladenine]
amount of MyoD1 positive nuclei (dy3K/dy3K mice [1]; [7]): increased | number of cells with centrally located nuclei (dy3K/dy3K mice [1]; [7]): slightly but significantly elevated | proportion of fibers expressing eMHC (dy3K/dy3K mice [1]; [7]): significantly increased | ratio of quadriceps muscle wet weight per body weight (dy3K/dy3K mice [1]; 3-MA injected vs age-matched non-injected dy3K/dy3K mice): normalized | Collagen III expression (fibrosis) (dy3K/dy3K mice [1]; [8]): reduced | tenascin-C expression (fibrosis) (dy3K/dy3K mice [1]; [8]): reduced | proportion of TUNEL-positive myonuclei (dy3K/dy3K mice [1]; 3-MA treated dy3K/dy3K animals, quadriceps): significantly reduced | expression of laminin 132 chain (dy3K/dy3K mice [1]; [9]): near normal | expression of laminin α4 chain (dy3K/dy3K mice [1]; [9]): near normal | muscle morphology (dy3K/dy3K mice [1]; dy3K/dy3K mice, 3-MA 15 mg/kg intraperitoneal at 2.5 and 3.5 weeks, 14 days post-injection): considerably improved muscle morphology | caspase-3 positive fibers (dy3K/dy3K mice [1]; dy3K/dy3K mice, forty-eight hours after 3-MA injection): same proportion as in non-injected dy3K/dy3K mice | proportion of caspase 3 positive fibers (dy3K/dy3K mice [1]; dy3K/dy3K quadriceps, 14 days after injection): significantly decreased | average fibre diameter (dy3K/dy3K mice [1]; quadriceps, dy3K/dy3K mice upon 3-MA injection): increased | fibre size distribution in quadriceps muscle (dy3K/dy3K mice [1]; wild-type and dy3K/dy3K injected animals): significantly shifted towards larger fibres | body weight (dy3K/dy3K mice [2]): weighed significantly more | Akt phosphorylation on threonine 308 and serine 473 (Akt; 48 h after injection): restored to wild-type levels | Akt phosphorylation on threonine 308 and serine 473 (Akt; 14 days after injection): restored to wild-type levels | expression of the autophagy-related genes [3]: restored the expression of the autophagy-related genes to the basal level | pathology of the peripheral nerve (dy3K/dy3K mice [4]): did not appreciably improve | hind leg paralysis (dy3K/dy3K mice [4]; similar in non-treated dy3K/dy3K mice): transient hind leg paralysis often occurred in one leg | hind leg paralysis (wild-type mice): not in 3-MA injected wild-type mice | median survival (dy3K/dy3K mice [5]): 37 days | activity in an open field test (exploratory locomotion) (dy3K/dy3K mice [6]): same level of activity as wild-type animals
